# Target: T1, h-TRAAK (Homo sapiens, UniProt Q9NYG8)
# T1 construct: expressed in transfected cells; host or cells: HEK 293
# T1 sequence (Q9NYG8 1-393): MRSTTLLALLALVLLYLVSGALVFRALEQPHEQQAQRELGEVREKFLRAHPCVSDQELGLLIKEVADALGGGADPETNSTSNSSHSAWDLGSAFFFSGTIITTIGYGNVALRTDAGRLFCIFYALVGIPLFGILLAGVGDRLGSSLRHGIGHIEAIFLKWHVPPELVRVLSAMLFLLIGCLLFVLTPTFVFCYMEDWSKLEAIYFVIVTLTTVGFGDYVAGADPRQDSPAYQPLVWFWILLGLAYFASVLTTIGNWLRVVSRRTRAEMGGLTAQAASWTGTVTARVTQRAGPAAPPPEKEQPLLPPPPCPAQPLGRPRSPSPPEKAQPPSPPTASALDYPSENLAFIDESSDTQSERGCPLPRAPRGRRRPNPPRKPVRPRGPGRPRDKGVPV
# Assay: Whole cell patch clamp recordings in HEK 293 cells transiently transfected with h-TRAAK
# Type: cell-based
# Text: Electrophysiological Recordings in HEK293 Cells
# For whole cell patch clamp recordings cells were placed on the stage of an inverted microscope and continuously superfused with a solution containing, in mM: NaCl 150, KCl 5, HEPES 10, CaCl2 1 and MgCl2 3; pH with NaOH. The patch pipette solution contained in mM: KCl 150, HEPES 10, MgCl2 3 and EGTA 5; pH7.2 with KOH. When cells were voltage clamped at a test potential of −80 mV depolarising pulses elicited rapidly activating, non-inactivating outward currents. At a test potential of +10 mV these currents were considerably greater in amplitude, 300.4 pA±92.9 (n=5) than those recorded from untransfected wild type HEK 293 cells, 94.8 pA +12.6 (n=15). h-TRAAK-mediated currents were potentiated by arachidonic acid over a voltage range from −140 to +60 mV.
smiles,measurement,setting,value
CCCCC/C=C\C/C=C\C/C=C\C/C=C\CCCC(=O)O [arachidonic acid],fold increase in h-TRAAK-mediated current,"10 μM arachidonic acid, test potential of +10 mV",7.9 ±3.0 fold
same,effect on h-TRAAK-mediated currents,voltage range from −140 to +60 mV,potentiated
